# Data taken from patent US12459951B2, “Compounds that interact with RAS superfamily proteins for treatment of cancers, inflammatory diseases, rasopathies, and fibrotic disease” (SHY Therapeutics, LLC, priority 2022, dated 2025).
# Experiments:
# [1] = tested on: Smad2/Smad3 phosphorylation; assay: Phospho-Smad2/3 Inhibition Assay (western blot), Panc-1; format: cell-based, human; details: at 10 μM, Panc-1 pancreatic cancer cell line; starred symbols = activation
# In short: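 Panc-1 cells (KRas G12D), starved overnight in 0.5% FBS, treated 3 h at 37° C with compound at 10 μM final (0.3% DMSO) or serial dilutions for IC50, then stimulated with 10 ng/ml TGF-b1 for 1 h. Phospho-Smad2 (Ser465/467) and phospho-Smad3 (Ser423/425) detected by western blot.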
# [2] = tested on: Akt phosphorylation; assay: Akt Phosphorylation Assay (western blot), Panc-1; format: cell-based, human; details: at 10 μM, * = activation
# In short: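 Panc-1 (KRas G12D) cells were treated with compound at 10 μM final (0.3% DMSO) for 6 h at 37 °C, or with serial dilutions for IC50. Cells were either serum-starved overnight in 0.5% FBS and then stimulated with 1.5 ng/ml EGF for 15 min, or kept in 10% FBS without stimulation. Akt Ser473 phosphorylation in lysates was read by western blot.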
# [3] = tested on: IL6; assay: IL-6 Quantification Assay (ELISA), LPS-stimulated RAW 264.7; format: cell-based; set-up: inhibition: dose or concentration left out as unconfirmed; details: Mus musculus, RAW264.7, read-out: IL-6: % inh.
SMILES,% inh of Smad2/3 phosphorylation in Panc-1 [1],% inh of Akt phosphorylation in Panc-1 [2],inhibition [3] [%],inhibition at 10 µM ([3]; at 10 μM) [%]
"CO[C@H]1CC[C@@H](Nc2nc(-c3ccccn3)nn3cc(-c4ccn(C(C)C)n4)c(-c4ccccc4)c23)C1 (racemic) [Compound 24, rac 6-(1-Isopropyl-1H-pyrazol-3-yl)-N-((1R,3S)-3-methoxycyclopentyl)-5-phenyl-2-(pyridin-2-yl)pyrrolo[2,1-f][1,2,4]triazin-4-amine]",B (B = 26-45% inhibition),A* (1-25% activation),25 to 49,–
"COCC1CCN(c2nc(-c3ccccn3)nn3cc(-c4ccn(C(C)C)n4)c(-c4ccccc4)c23)C1 (racemic) [Compound 25, rac 6-(1-Isopropyl-1H-pyrazol-3-yl)-4-(3-(methoxymethyl)pyrrolidin-1-yl)-5-phenyl-2-(pyridin-2-yl)pyrrolo[2,1-f][1,2,4]triazine]",0 (0 = 0% inhibition),D (85-100% inhibition),1 to 24,–
"COC[C@@H]1CC[C@@H]1CNc1nc(-c2ccccn2)nn2cc(-c3ccn(C(C)C)n3)c(-c3ccccc3)c12 (racemic) [Compound 26, rac 6-(1-Isopropyl-1H-pyrazol-3-yl)-N-(((1S,2R)-2-(methoxymethyl)cyclobutyl)methyl)-5-phenyl-2-(pyridin-2-yl)pyrrolo[2,1-f][1,2,4]triazin-4-amine]",C (C = 46-75% inhibition),C (50-84% inhibition),50 to 74,–
"COC1CCCN(c2nc(-c3ccccn3)nn3cc(-c4ccn(C(C)C)n4)c(-c4ccccc4)c23)C1 (racemic) [Compound 27, rac 6-(1-Isopropyl-1H-pyrazol-3-yl)-4-(3-methoxypiperidin-1-yl)-5-phenyl-2-(pyridin-2-yl)pyrrolo[2,1-f][1,2,4]triazine]",D (D = 76-100% inhibition),A* (1-25% activation),75 to 100,–
"COc1cccc(-c2cn3nc(-c4nccn4C)nc(N[C@@H]4CC[C@H](OC)C4)c3c2-c2ccccc2)c1Cl (racemic) [Compound 33, rac 6-(2-Chloro-3-methoxyphenyl)-N-((1R,3S)-3-methoxycyclopentyl)-2-(1-methyl-1H-imidazol-2-yl)-5-phenylpyrrolo[2,1-f][1,2,4]triazin-4-amine]",D (D = 76-100% inhibition),D (85-100% inhibition),–,75 to 100
"CO[C@H]1CC[C@@H](Nc2nc(-c3nccn3C)nn3cc(-c4ccn(C(C)C)n4)c(C(C)C)c23)C1 (racemic) [Compound 36, rac 5-Isopropyl-6-(1-isopropyl-1H-pyrazol-3-yl)-N-((1R,3S)-3-methoxycyclopentyl)-2-(1-methyl-1H-imidazol-2-yl)pyrrolo[2,1-f][1,2,4]triazin-4-amine]",D (D = 76-100% inhibition),0 (0% inhibition),50 to 74,–
"COc1cccc(-c2cn3nc(-c4nccn4C)nc(N[C@@H]4CC[C@@H](OC)C4)c3c2-c2ccccc2)c1F (racemic) [Compound 43, rac 6-(2-Fluoro-3-methoxyphenyl)-N-((1R,3R)-3-methoxycyclopentyl)-2-(1-methyl-1H-imidazol-2-yl)-5-phenylpyrrolo[2,1-f][1,2,4]triazin-4-amine]",D (D = 76-100% inhibition),B (26-49% inhibition),25 to 49,–
"COc1cccc(-c2cn3nc(-c4nccn4C)nc(N[C@@H]4CC[C@@H](OC)C4)c3c2-c2ccccn2)c1F (racemic) [Compound 46, rac 6-(2-Fluoro-3-methoxyphenyl)-N-((1R,3R)-3-methoxycyclopentyl)-2-(1-methyl-1H-imidazol-2-yl)-5-(pyridin-2-yl)pyrrolo[2,1-f][1,2,4]triazin-4-amine]",0 (0 = 0% inhibition),0 (0% inhibition),75 to 100,–
"COc1cccc(-c2cn3nc(-c4nccn4C)nc(N[C@@H]4CC[C@H]4OC)c3c2-c2ccccc2)c1C (racemic) [Compound 272, rac 6-(3-Methoxy-2-methylphenyl)-N-((1R,2R)-2-methoxycyclobutyl)-2-(1-methyl-1H-imidazol-2-yl)-5-phenylpyrrolo[2,1-f][1,2,4]triazin-4-amine]",D (D = 76-100% inhibition),D (85-100% inhibition),75 to 100,–
"COc1cccc(Nc2nc(-c3nccn3C)nn3cc(-c4ccn(C(C)C)n4)c(-c4ccccc4)c23)n1 [Compound 23, 6-(1-Isopropyl-1H-pyrazol-3-yl)-N-(6-methoxypyridin-2-yl)-2-(1-methyl-1H-imidazol-2-yl)-5-phenylpyrrolo[2,1-f][1,2,4]triazin-4-amine]",0 (0 = 0% inhibition),D (85-100% inhibition),75 to 100,–
"COc1cccc(-c2cn3nc(-c4nccn4C)nc(O)c3c2-c2ccccc2)c1Cl [Compound 28, 6-(2-Chloro-3-methoxyphenyl)-2-(1-methyl-1H-imidazol-2-yl)-5-phenylpyrrolo[2,1-f][1,2,4]triazin-4-ol]",0 (0 = 0% inhibition),A* (1-25% activation),25 to 49,–
"COCCNc1nc(-c2nccn2C)nn2cc(-c3cccc(OC)c3Cl)c(-c3ccccc3)c12 [Compound 29, 6-(2-Chloro-3-methoxyphenyl)-N-(2-methoxyethyl)-2-(1-methyl-1H-imidazol-2-yl)-5-phenylpyrrolo[2,1-f][1,2,4]triazin-4-amine]",D (D = 76-100% inhibition),D (85-100% inhibition),75 to 100,–
"COCCCNc1nc(-c2nccn2C)nn2cc(-c3cccc(OC)c3Cl)c(-c3ccccc3)c12 [Compound 30, 6-(2-Chloro-3-methoxyphenyl)-N-(3-methoxypropyl)-2-(1-methyl-1H-imidazol-2-yl)-5-phenylpyrrolo[2,1-f][1,2,4]triazin-4-amine]",D (D = 76-100% inhibition),D (85-100% inhibition),75 to 100,–
"COc1cccc(-c2cn3nc(-c4nccn4C)nc(N[C@H]4C[C@@H](OC)C4)c3c2-c2ccccc2)c1Cl [Compound 31, 6-(2-Chloro-3-methoxyphenyl)-N-((1s,3s)-3-methoxycyclobutyl)-2-(1-methyl-1H-imidazol-2-yl)-5-phenylpyrrolo[2,1-f][1,2,4]triazin-4-amine]",D (D = 76-100% inhibition),D (85-100% inhibition),75 to 100,–
"COc1cccc(-c2cn3nc(-c4nccn4C)nc(N[C@H]4C[C@H](OC)C4)c3c2-c2ccccc2)c1Cl [Compound 32, 6-(2-Chloro-3-methoxyphenyl)-N-((1r,3r)-3-methoxycyclobutyl)-2-(1-methyl-1H-imidazol-2-yl)-5-phenylpyrrolo[2,1-f][1,2,4]triazin-4-amine]",D (D = 76-100% inhibition),D (85-100% inhibition),75 to 100,–
"COCCNc1nc(-c2nccn2C)nn2cc(-c3ccn(C(C)C)n3)c(C(C)C)c12 [Compound 35, 5-Isopropyl-6-(1-isopropyl-1H-pyrazol-3-yl)-N-(2-methoxyethyl)-2-(1-methyl-1H-imidazol-2-yl)pyrrolo[2,1-f][1,2,4]triazin-4-amine]",A (A = 1-25% inhibition),0 (0% inhibition),25 to 49,–
"COc1cccc(Nc2nc(-c3nccn3C)nn3ccc(C)c23)n1 [Compound 38, N-(6-Methoxypyridin-2-yl)-5-methyl-2-(1-methyl-1H-imidazol-2-yl)pyrrolo[2,1-f][1,2,4]triazin-4-amine]",0 (0 = 0% inhibition),0 (0% inhibition),25 to 49,–
"COc1cccc(Nc2nc(-c3nccn3C)nn3ccc(-c4ccccc4)c23)n1 [Compound 40, N-(6-Methoxypyridin-2-yl)-2-(1-methyl-1H-imidazol-2-yl)-5-phenylpyrrolo[2,1-f][1,2,4]triazin-4-amine]",B (B = 26-45% inhibition),0 (0% inhibition),75 to 100,–
"Cn1ccnc1-c1nc(OCCN2CCCC2)c2c(-c3ccccc3)ccn2n1 [Compound 41, 2-(1-Methyl-1H-imidazol-2-yl)-5-phenyl-4-(2-(pyrrolidin-1-yl)ethoxy)pyrrolo[2,1-f][1,2,4]triazine]",A* (A* = 1-25% activation),A* (1-25% activation),1 to 24,–
"Cc1c(-c2ccn(C)n2)cn2nc(-c3nccn3C)nc(N3CCc4cc(C(F)(F)F)cnc43)c12 [Compound 251, 5-Methyl-2-(1-methyl-1H-imidazol-2-yl)-6-(1-methyl-1H-pyrazol-3-yl)-4-(5-(trifluoromethyl)-2,3-dihydro-1H-pyrrolo[2,3-b]pyridin-1-yl)pyrrolo[2,1-f][1,2,4]triazine]",A* (A* = 1-25% activation),A (1-25% inhibition),–,–
